Laboratory results reported in EP2292242B1, “A SCUTELLARIN DERIVATIVE, THE PREPARING PROCESS, THE PHARMACEUTICAL COMPOSITION AND THE USE THEREOF” (Kunming Pharmaceutical Corp., priority 2008, dated 2009).

Tests used:
[1] = background statement; cited from earlier work
[2] = comparative study on solubilities (China Pharmacopeia 2005 terms); format: physicochemical; settings: terms per China Pharmacopeia 2005
[3] = system: focal cerebral ischemia induced by MCAO (middle cerebral artery occlusion) in rats; test: focal cerebral ischemia induced by MCAO (middle cerebral artery occlusion) in rats; format: in vivo, SD rat; settings: induced by ADP-2Na, final concentration of ADP, turbidimetry; 50mg/kg gavage once daily for 5 days; X±SD
Protocol: Male SD rats, weighing 240~290g, grouping and dosages were as above. Additionally, a positive control group, i.e., nimodipine 50mg/kg group was set up. Animals of each group were gavage once daily for consecutive 5 days in predetermined dosage. At 30 minute after the last administration, the animals were anesthetized with 12% chloral hydrate in 350 mg/kg via intraperitoneal injection. The animals were kept left lateral position and the skin was cut along the middle point between right ear and eye line. Temporalis was separated and cheekbone was sheared. A holl was drilled with a dental drill in front of zygomatic root and MCA was exposed. […]
The animals were scored on neurological functions at 6 hour and 24 hour after modeling, according to behavior such as movement. […]
24 hour after modeling and after neurological scoring, blood was taken via carotid artery intubation in duplicate. For one sample, serum was separated and the activity of AST and LDH was determined according to the method of the kit; for another sample, it was treated with 3.8% sodium citrate in 1:9 for the purpose of anticoagulation, centrifuged at 1000rpm for 5 minutes to prepare platelet rich plasma (PRP), and centrifuged at 3500rpm for 10 minutes to prepare platelet poor plasma (PPP). […]

| SMILES | solubility in water [1] | solubility in 0.01NNaOH ([2]; 0.01NNaOH) | solubility in 95%EtOH ([2]; 95%EtOH) | solubility in H2O ([2]; H2O) | solubility in MeOH ([2]; MeOH) | solubility in n-BuOH ([2]; n-BuOH) | rate of platelet aggregation [3] [%] |
| --- | --- | --- | --- | --- | --- | --- | --- |
| O=C(O)[C@H]1O[C@@H](Oc2cc3oc(-c4ccc(O)cc4)cc(=O)c3c(O)c2O)[C@H](O)[C@@H](O)[C@@H]1O [scutellarin] | sparingly soluble | soluble | slightly soluble | very slightly soluble | slightly soluble | slightly soluble |  |
| COCCOC(=O)C1=C(C)NC(C)=C(C(=O)OC(C)C)C1c1cccc([N+](=O)[O-])c1 (stereo not shown) [nimodipine, reference compound] |  |  |  |  |  |  | 54.15±7.76 |
